Measured values as given in publication PMC2248166, “Quantitative peptide binding motifs for 19 human and mouse MHC class I molecules derived using positional scanning combinatorial peptide libraries” (Immunome Research, 2008).
Where a SMILES comes first, the peptide text is derived from it.

Each compound was assayed against HLA B*1503 (Homo sapiens, UniProt P01889, A329T/A93T/A95T/C349S/D201E/D98Y/E187L/E204Q/K202T/N87E/Q94N/R155S/R180L/S121R/S35A/V306I/V36M/Y140S/Y91S) (assay: biochemical).
Assay type: binding

Compound	IC50
CSCC[C@H](NC(=O)[C@H](CCSC)NC(=O)[C@H](CCC(=O)O)NC(=O)[C@H](C)N)C(=O)N[C@@H](C)C(=O)N1CCC[C@H]1C(=O)N[C@@H](CO)C(=O)N[C@@H](CCSC)C(=O)N[C@@H](Cc1ccccc1)C(=O)O [3102.1211] (H-AEMMAPSMF-OH)	17 nM
CSCC[C@H](NC(=O)[C@@H](N)CCCCN)C(=O)N[C@@H](C)C(=O)N[C@@H](C)C(=O)N[C@@H](CC(=O)O)C(=O)N[C@@H](CCCNC(=N)N)C(=O)NCC(=O)N[C@@H](C)C(=O)N[C@@H](Cc1ccccc1)C(=O)O [3102.1255] (H-KMAADRGAF-OH)	2.5 nM
CC[C@H](C)[C@H](NC(=O)[C@H](Cc1ccc(O)cc1)NC(=O)[C@H](CO)NC(=O)[C@@H]1CCCN1C(=O)[C@H](Cc1ccc(O)cc1)NC(=O)[C@H](CCSC)NC(=O)[C@@H](N)CO)C(=O)N[C@@H](CCC(=O)O)C(=O)N[C@@H](Cc1ccccc1)C(=O)O [3102.1196] (H-SMYPSYIEF-OH)	0.11 nM
CC(C)[C@H](NC(=O)[C@H](CC(=O)O)NC(=O)[C@H](CCC(=O)O)NC(=O)[C@@H](NC(=O)[C@H](CO)NC(=O)[C@@H](N)CCCCN)C(C)C)C(=O)N[C@@H](CO)C(=O)N[C@@H](C)C(=O)N[C@@H](Cc1ccccc1)C(=O)O [3102.1062] (H-KSVEDVSAF-OH)	14 nM
CC(C)C[C@H](NC(=O)[C@H](Cc1ccc(O)cc1)NC(=O)[C@H](CCC(N)=O)NC(=O)[C@H](Cc1ccccc1)NC(=O)[C@H](CCC(N)=O)NC(=O)[C@@H]1CCCN1C(=O)[C@H](CCC(N)=O)NC(=O)[C@H](CCC(N)=O)NC(=O)[C@@H](N)Cc1ccccc1)C(=O)O [3102.1233] (H-FQQPQFQYL-OH)	23 nM
CC(C)C[C@H](NC(=O)[C@H](Cc1ccccc1)NC(=O)[C@H](CO)NC(=O)[C@@H](N)CC(C)C)C(=O)N[C@@H](CO)C(=O)N[C@@H](CCCNC(=N)N)C(=O)N[C@H](C(=O)N[C@@H](Cc1ccccc1)C(=O)N[C@@H](Cc1ccccc1)C(=O)O)C(C)C [3102.1115] (H-LSFLSRVFF-OH)	0.33 nM
CC(C)C[C@H](NC(=O)[C@H](CC(N)=O)NC(=O)[C@H](CC(C)C)NC(=O)[C@H](CCCNC(=N)N)NC(=O)[C@H](CCCNC(=N)N)NC(=O)[C@H](CO)NC(=O)[C@H](CCCCN)NC(=O)[C@@H](N)CO)C(=O)N[C@@H](Cc1ccccc1)C(=O)O [3102.1061] (H-SKSRRLNLF-OH)	2.4 nM
CC[C@H](C)[C@H](N)C(=O)N[C@@H](CCCCN)C(=O)N[C@@H](Cc1ccccc1)C(=O)N[C@@H](C)C(=O)N[C@@H](C)C(=O)NCC(=O)N[C@H](C(=O)N[C@H](C(=O)N[C@H](C(=O)O)[C@@H](C)CC)[C@@H](C)CC)[C@@H](C)CC [3102.1198] (H-IKFAAGIII-OH)	16 nM
CC[C@H](C)[C@H](NC(=O)[C@H](CC(=O)O)NC(=O)[C@@H](NC(=O)[C@H](Cc1ccccc1)NC(=O)[C@@H](NC(=O)[C@H](CCCCN)NC(=O)[C@@H](N)Cc1ccc(O)cc1)C(C)C)[C@@H](C)O)C(=O)N[C@@H](CO)C(=O)N[C@@H](CCSC)C(=O)O [3102.1298] (H-YKVFTDISM-OH)	2.2 nM
CC[C@H](C)[C@H](N)C(=O)N[C@@H](CC(C)C)C(=O)N[C@@H](C)C(=O)N1CCC[C@H]1C(=O)N[C@@H](CC(N)=O)C(=O)N1CCC[C@H]1C(=O)N[C@@H](CC(N)=O)C(=O)N[C@@H](CCCNC(=N)N)C(=O)N[C@@H](Cc1ccccc1)C(=O)O [3102.1221] (H-ILAPNPNRF-OH)	26 nM
CC[C@H](C)[C@H](NC(=O)CNC(=O)[C@H](CC(C)C)NC(=O)[C@H](CCSC)NC(=O)[C@H](CO)NC(=O)[C@@H](N)Cc1ccccc1)C(=O)N[C@@H](Cc1c[nH]c2ccccc12)C(=O)N[C@@H](Cc1ccccc1)C(=O)N[C@@H](Cc1ccccc1)C(=O)O [3102.1113] (H-FSMLGIWFF-OH)	28 nM
CC[C@H](C)[C@H](NC(=O)[C@H](Cc1c[nH]cn1)NC(=O)[C@H](CC(N)=O)NC(=O)[C@H](CCCCN)NC(=O)[C@@H](N)CCCNC(=N)N)C(=O)N[C@@H](Cc1ccc(O)cc1)C(=O)N[C@@H](CC(N)=O)C(=O)N[C@@H](CO)C(=O)N[C@@H](Cc1ccccc1)C(=O)O [3102.1203] (H-RKNHIYNSF-OH)	0.13 nM
CC[C@H](C)[C@H](NC(=O)[C@H](CC(N)=O)NC(=O)[C@@H](NC(=O)[C@H](Cc1ccccc1)NC(=O)[C@H](CO)NC(=O)[C@@H](NC(=O)[C@H](CO)NC(=O)[C@@H](N)Cc1c[nH]c2ccccc12)[C@@H](C)O)[C@@H](C)O)C(=O)N[C@@H](Cc1ccccc1)C(=O)O [3102.1342] (H-WSTSFTNIF-OH)	5.9 nM
CC(C)C[C@H](NC(=O)[C@@H](N)CCCCN)C(=O)N[C@H](C(=O)N[C@@H](CO)C(=O)N[C@H](C(=O)N[C@@H](CCC(=O)O)C(=O)N[C@H](C(=O)N[C@@H](CO)C(=O)N[C@@H](Cc1ccccc1)C(=O)O)[C@@H](C)O)[C@@H](C)O)[C@@H](C)O [3102.1165] (H-KLTSTETSF-OH)	25 nM
CC[C@H](C)[C@H](NC(=O)[C@@H](NC(=O)[C@H](CCC(=O)O)NC(=O)[C@H](CCC(=O)O)NC(=O)[C@H](CO)NC(=O)[C@H](CCSC)NC(=O)[C@@H](N)CC(C)C)[C@@H](C)O)C(=O)N[C@@H](CC(=O)O)C(=O)N[C@@H](Cc1ccccc1)C(=O)O [3102.1106] (H-LMSEETIDF-OH)	12 nM
CC[C@H](C)[C@H](NC(=O)[C@H](CC(N)=O)NC(=O)[C@H](CC(N)=O)NC(=O)[C@H](Cc1ccccc1)NC(=O)[C@@H]1CCCN1C(=O)[C@H](CCCCN)NC(=O)[C@H](CCCNC(=N)N)NC(=O)[C@H](CCC(N)=O)NC(=O)[C@@H](N)Cc1ccccc1)C(=O)O [3102.1079] (H-FQRKPFNNI-OH)	8.9 nM
CC[C@H](C)[C@H](N)C(=O)N[C@@H](CCSC)C(=O)N[C@@H](CO)C(=O)N[C@@H](CC(C)C)C(=O)N[C@@H](Cc1ccccc1)C(=O)N[C@@H](CO)C(=O)N[C@H](C(=O)N[C@@H](CO)C(=O)N[C@@H](C)C(=O)O)[C@@H](C)O [3102.1063] (H-IMSLFSTSA-OH)	7.7 nM
CC(C)C[C@H](NC(=O)[C@@H](N)Cc1ccccc1)C(=O)N[C@@H](CO)C(=O)N[C@@H](CC(N)=O)C(=O)N[C@@H](CS)C(=O)N[C@@H](CCC(=O)O)C(=O)N[C@@H](CCCCN)C(=O)N[C@@H](CCC(N)=O)C(=O)N[C@@H](Cc1ccccc1)C(=O)O [3102.1206] (H-FLSNCEKQF-OH)	21 nM
CSCC[C@H](N)C(=O)N[C@@H](CCCCN)C(=O)N[C@@H](Cc1ccc(O)cc1)C(=O)N[C@@H](CS)C(=O)N[C@@H](CO)C(=O)N[C@@H](Cc1ccc(O)cc1)C(=O)N[C@@H](CCC(N)=O)C(=O)N[C@@H](CO)C(=O)N[C@@H](Cc1ccccc1)C(=O)O [3102.1287] (H-MKYCSYQSF-OH)	1.6 nM
CC[C@H](C)[C@H](N)C(=O)N[C@@H](CCSC)C(=O)N[C@@H](C)C(=O)N[C@@H](CC(C)C)C(=O)N[C@H](C(=O)N[C@H](C(=O)N[C@@H](CO)C(=O)N[C@H](C(=O)N[C@@H](Cc1ccccc1)C(=O)O)[C@@H](C)CC)C(C)C)[C@@H](C)CC [3102.1093] (H-IMALIVSIF-OH)	4.5 nM
CSCC[C@H](NC(=O)[C@@H](N)[C@@H](C)O)C(=O)N[C@H](C(=O)N[C@@H](CC(N)=O)C(=O)N[C@@H](CO)C(=O)N[C@@H](CC(C)C)C(=O)N[C@H](C(=O)N[C@@H](Cc1ccc(O)cc1)C(=O)N[C@@H](Cc1ccccc1)C(=O)O)[C@@H](C)O)C(C)C [3102.1160] (H-TMVNSLTYF-OH)	0.13 nM
CC[C@H](C)[C@H](NC(=O)[C@H](CO)NC(=O)[C@@H](N)Cc1ccccc1)C(=O)N[C@@H](CC(C)C)C(=O)N[C@@H](Cc1ccccc1)C(=O)N[C@@H](CO)C(=O)N[C@@H](CC(N)=O)C(=O)N[C@@H](CC(N)=O)C(=O)N[C@@H](Cc1ccccc1)C(=O)O [3102.1156] (H-FSILFSNNF-OH)	30 nM
CC[C@H](C)[C@H](NC(=O)[C@H](CS)NC(=O)[C@@H](NC(=O)[C@H](CC(N)=O)NC(=O)[C@@H]1CCCN1C(=O)[C@H](Cc1ccc(O)cc1)NC(=O)[C@H](CC(C)C)NC(=O)[C@@H](N)CO)C(C)C)C(=O)N[C@@H](Cc1ccccc1)C(=O)O [3102.1246] (H-SLYPNVCIF-OH)	4.9 nM
CSCC[C@H](NC(=O)[C@H](CCCCN)NC(=O)[C@H](CS)NC(=O)[C@H](CO)NC(=O)[C@H](CO)NC(=O)[C@H](CCC(N)=O)NC(=O)[C@@H](N)CCCNC(=N)N)C(=O)N[C@@H](C)C(=O)N[C@@H](CC(C)C)C(=O)O [3102.1299] (H-RQSSCKMAL-OH)	19 nM
C[C@H](NC(=O)[C@H](Cc1c[nH]c2ccccc12)NC(=O)[C@H](CO)NC(=O)CNC(=O)[C@@H](N)CCCNC(=N)N)C(=O)N[C@H](C(=O)N[C@@H](CO)C(=O)N[C@@H](CO)C(=O)N[C@@H](Cc1ccccc1)C(=O)O)[C@@H](C)O [3102.1323] (H-RGSWATSSF-OH)	11 nM
CC[C@H](C)[C@H](NC(=O)[C@H](CO)NC(=O)[C@H](CCC(N)=O)NC(=O)[C@H](CCC(N)=O)NC(=O)[C@H](CC(C)C)NC(=O)[C@H](Cc1ccccc1)NC(=O)[C@H](CC(C)C)NC(=O)[C@@H](N)C(C)C)C(=O)N[C@@H](Cc1ccccc1)C(=O)O [3102.1081] (H-VLFLQQSIF-OH)	0.61 nM
CC[C@H](C)[C@H](NC(=O)[C@H](CO)NC(=O)[C@H](CCCNC(=N)N)NC(=O)[C@H](CCCNC(=N)N)NC(=O)[C@@H](NC(=O)[C@@H](NC(=O)[C@@H](NC(=O)[C@H](CCCCN)NC(=O)[C@@H](N)Cc1ccccc1)C(C)C)[C@@H](C)O)[C@@H](C)O)C(=O)O [3102.1295] (H-FKVTTRRSI-OH)	4.6 nM
CC[C@H](C)[C@H](NC(=O)[C@H](CO)NC(=O)[C@@H]1CCCN1C(=O)[C@H](CC(C)C)NC(=O)[C@@H](NC(=O)[C@H](CCSC)NC(=O)[C@H](CCSC)NC(=O)[C@@H](N)CC(C)C)[C@@H](C)O)C(=O)N[C@@H](Cc1ccccc1)C(=O)O [3102.1317] (H-LMMTLPSIF-OH)	0.15 nM
CC(C)C[C@H](NC(=O)[C@H](C)NC(=O)[C@H](CCC(N)=O)NC(=O)[C@H](CCC(N)=O)NC(=O)[C@@H](NC(=O)[C@@H](N)Cc1ccccc1)[C@@H](C)O)C(=O)N[C@@H](CO)C(=O)N[C@@H](CO)C(=O)N[C@@H](Cc1ccccc1)C(=O)O [3102.1087] (H-FTQQALSSF-OH)	6.4 nM
CC[C@H](C)[C@H](NC(=O)[C@H](Cc1ccccc1)NC(=O)[C@H](CCC(=O)O)NC(=O)[C@H](Cc1ccccc1)NC(=O)[C@H](C)NC(=O)[C@H](C)N)C(=O)N[C@@H](CC(N)=O)C(=O)N[C@@H](CO)C(=O)N[C@@H](CC(C)C)C(=O)O [3102.1324] (H-AAFEFINSL-OH)	4.6 nM
